Patent US10144914B2, “Modified substrates for protection of peptide-immobilized surfaces from gamma radiation degradation” (Corning Incorporated, priority 2010, dated 2018)

How the values were obtained:
H7 cells [1] = assay: Crystal violet staining of H7 cells on gamma sterilized VN peptide acrylate surface, amino acid blocking; format: cell-based, human; conditions: gamma irradiated; for H7 attachment and growth (crystal violet staining): used as blocking reagent after peptide conjugation
Description: (§1) Acrylate coating: 2-Hydroxyethyl methacryalte, 2-carboxyethyl acrylate, tetra(ethylene glycol) dimethacrylate, Darocur 1173, Irgacure 819 were mixed with ratio of 80:20:3:3:0.1 and dissolved in ethanol at total monomer concentration of 5%. The obtained formulation was spin coated on oxygen plasma treated Zeonor film. After ethanol evaporated, the (meth)acrylate coating was cured using Xenon pulsed UV curing system in nitrogen purged box. Then, the coated films were in-mold-labeled into T-75 Zeonor flasks and used for conjugation directly.
(§2) Peptide conjugation: The acrylate surface was activated for an hour with 1:1 EDC: NHS in DMF. After aspiration of the activation solution, the surface was treated for an hour with 1 mM of the VN peptide (Ac-[…]) (SEQ ID NO:1) in phosphate buffer (pH7.4). After aspiration of the peptide solution, the surface was treated for an hour with 1M ethanolamine adjusted to pH 8.0-8.5 with hydrochloric acid or 0.1M of L-methionine methyl ester hydrochloride adjusted to pH 8 with sodium hydroxide based on experimental design. All reactions were performed at room temperature.
Sterilization: Flasks were packed with nitrogen and desiccant in aluminum pouch for Gamma sterilization. The irradiation dose was 11-18 kGy. Positive control VN-peptide acrylate sample was sanitized with 70% ethanol.
Stem cell culture: H7 cells were sub-cultured into T-75 fasks with desired peptide acrylate surfaces or Matrigel™ coated surfaces (positive control) at the density of 100,000 cell/cm^2 in X-VIVO 10+GF medium. Microscopic examination of cell and colony morphology was performed at day 3 or day 4. Cell number was assessed at day 4 or day 5 by harvesting with collagenase IV/EDTA treatment followed by cell counting with automated cell number/viability analyzer, Vi-Cell (Beckman Coulter). For methionine methyl ester treated surface, a step of rinsing with DPBS was applied to remove amino acid extractables before cell culture.

[2] = Solubility of VN peptide in ethanol; format: physicochemical; conditions: 100% 200-proof ethanol, 0.5 mM or 1 mM, after agitation
Description: iii) Preparation of VN peptide coating solution: A 10 mL 0.5 mM or 1 mM VN coating solution was prepared by weighing out their corresponding masses and dissolving using a 100% 200-proof ethanol as the solvent.

H7 cells [3] = assay: H7 cell count and morphology on gamma sterilized VN peptide acrylate surface after amino acid absorption; format: cell-based, human; conditions: 0.1M absorbed 1 hr, gamma 11-18 kGy
Description: as §1, §2
Amino acid absorption: Peptide conjugated T-75 flask was filled with 10 mL of 0.1M of L-methionine methyl ester hydrochloride adjusted to pH 8 with sodium hydroxide. The flasks were lay flat so that the peptide surfaces were submerged under the amino acid solution and were incubated for 1 hr. This allows positive charged amino acid to be absorbed into negative charged peptide-acrylate coating. Then the amino acid solution was removed and the flasks were dried in vacuum for overnight before packing and sterilization. […]
Stem cell culture: H7 cells were sub-cultured into T-75 fasks with desired peptide acrylate surfaces or Matrigel™ coated surfaces (positive control) at the density of 100,000 cell/cm^2 in X-VIVO 10+GF medium. […] Cell number was assessed at day 4 or day 5 by harvesting with collagenase IV/EDTA treatment followed by cell counting with automated cell number/viability analyzer, Vi-Cell (Beckman Coulter). […]

[4] = Solubility of individual coating components in water, ethanol and 1M HCl; format: physicochemical
Description: iii) Preparation of Antioxidant/Stabilizer Formulations: Prior to preparation of the antioxidant/stabilizer coating formulation, solubility of the individual components of each formulation was determined in water, ethanol and 1M HCl. Majority of the components were soluble in water, except for two in ethanol and one in 1M HCl. Both n-propyl gallate and Trolox were soluble in ethanol and only L-Tryptophan in 1M HCl. For each individual coating mixture formulation (i.e. Coatings 1-8), in a separate 25 mL glass vial containing the different components individually weighed out based on their respective wt % (see Table 1, below), Coating 1: 22 ml of solvent was used to make the coating solution (i.e. 20 mL of DI/water+2 ml of ethanol); Coating 2: 20 mL of DI/water added to vial; Coating 3: 18 mL of DI/water added+2 mL of ethanol to vial; Coating 4: 20 mL of DI/water+2 mL of ethanol; Coating 5: 16 mL of DI/water+4 mL of 1M HCl; Coating 6: 12 mL of DI/water+2 mL of ethanol+4 mL of 1M HCl; Coating 7: 20 mL of DI/water; Coating 8: 10 ml of DI/water+4 ml of ethanol+5 ml of 1M HCl.

Compound: NCCO [ethanolamine, reference compound]
- H7 attachment and growth (crystal violet staining) (H7 cells [1]): there were not cells attached or grew

Compound: Ac-KGGPQVTRGDVFTMP-NH2 (C-terminus assumed) [VN peptide]
- solubility in the ethanol solvent [2]: partial to almost completely soluble

Compound: COC(=O)[C@@H](N)CCSC.Cl [methionine methyl ester, L-methionine methyl ester hydrochloride]
- bioactivity of VN-peptide acrylate surface after Gamma irradiation (H7 cells [3]): maintained
- stem cell morphology versus positive control (H7 cells [3]): comparable
- cell number after 4 days of culture versus ETOH ctr and Matrigel (H7 cells [3]; day 4): comparable
- H7 attachment and growth (crystal violet staining) (H7 cells [1]): still support good H7 attachment and growth
- cell morphology versus ethanol sanitized surfaces (H7 cells [1]; used as blocking reagent): still not able to much those on ethanol sanitized surfaces

Compound: N[C@@H](Cc1c[nH]c2ccccc12)C(=O)O [L-Tryptophan]
- solubility in 1M HCl ([4]; 1M HCl): soluble

Compound: Cc1c(C)c2c(c(C)c1O)CCC(C)(C(=O)O)O2 (stereo not shown) [Trolox]
- solubility in ethanol [4]: soluble

Compound: CCCOC(=O)c1cc(O)c(O)c(O)c1 [n-propyl gallate]
- solubility in ethanol [4]: soluble
